This note sets out measurements from paper PMC9218239 (Current Research in Pharmacology and Drug Discovery, 2022).

Series [1] has as its system CYP1A2, 2C9, 2C19, 2D6, and 3A4 pooled human supersomes. The conditions noted are these: 10 μM, recorded from major to minor.
Series [2] relates to pooled cryopreserved primary human hepatocytes. As to conditions: single drug, 10 μM, 3 h.
The target in series [3] is CYP2C19 pooled human supersomes (Homo sapiens, UniProt P33261). Description: CYP2C19 supersome screening. It counts as in vitro ADME. The conditions noted are these: 10 μM; strongly metabolized = less than 80% of the drug remaining.
Series [4] deals with CYP2C9 pooled human supersomes (Homo sapiens, UniProt P11712). Nature of the series: CYP2C9 supersome screening. It counts as in vitro ADME. The conditions noted are these: 10 μM; strongly metabolized = less than 80% of the drug remaining.

SMILES strings stand for the structures. Where two headings read alike, the source gives them in different places.

CYP2C19 pooled human supersomes, sequence (P33261 whole entry): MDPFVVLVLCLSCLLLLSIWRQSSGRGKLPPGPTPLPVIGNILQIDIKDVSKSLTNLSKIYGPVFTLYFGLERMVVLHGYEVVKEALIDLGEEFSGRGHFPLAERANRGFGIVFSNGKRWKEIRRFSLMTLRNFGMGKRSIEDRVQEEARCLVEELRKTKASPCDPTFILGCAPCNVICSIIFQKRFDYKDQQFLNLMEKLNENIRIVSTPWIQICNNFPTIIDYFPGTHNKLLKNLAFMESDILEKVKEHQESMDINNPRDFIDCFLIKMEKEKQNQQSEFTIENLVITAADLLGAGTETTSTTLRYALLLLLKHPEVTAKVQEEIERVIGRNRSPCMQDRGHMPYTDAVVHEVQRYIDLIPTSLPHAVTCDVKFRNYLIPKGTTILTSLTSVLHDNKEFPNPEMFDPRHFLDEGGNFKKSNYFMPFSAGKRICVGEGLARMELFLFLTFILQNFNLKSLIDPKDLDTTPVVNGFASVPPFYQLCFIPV
CYP2C9 pooled human supersomes, sequence (P11712 whole entry): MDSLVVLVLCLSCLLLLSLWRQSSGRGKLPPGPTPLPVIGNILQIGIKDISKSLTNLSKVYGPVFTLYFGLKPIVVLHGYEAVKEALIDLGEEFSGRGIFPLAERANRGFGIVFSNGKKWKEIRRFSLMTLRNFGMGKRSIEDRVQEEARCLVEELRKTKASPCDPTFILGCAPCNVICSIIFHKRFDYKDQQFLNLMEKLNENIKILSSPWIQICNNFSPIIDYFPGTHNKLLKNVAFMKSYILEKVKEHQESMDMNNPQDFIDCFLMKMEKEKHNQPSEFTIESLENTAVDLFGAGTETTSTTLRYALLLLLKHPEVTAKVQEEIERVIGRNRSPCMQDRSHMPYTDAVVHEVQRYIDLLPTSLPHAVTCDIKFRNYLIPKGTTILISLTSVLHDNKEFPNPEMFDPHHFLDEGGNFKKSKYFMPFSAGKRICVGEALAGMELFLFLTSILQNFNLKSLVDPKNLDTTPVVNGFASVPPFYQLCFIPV

As for `COc1cc2ncnc(Nc3ccc(F)c(Cl)c3)c2cc1OCCCN1CCOCC1` [Gefitinib, gefitinib], the “Metabolism Pathway: CYP Pathway (isoenzymes showing parent degradation)” value (shortened to “Metabolism Pathway: CYP Pathway”) in series [1] is “CYP 2D6 ∗, 3A4∗, 1A2, 2C9, 2C19”; in series [1] (listed as gefitinib), “CYP2D6, 3A4, 1A2, 2C9, and 2C19”.

With `Fc1ccc([C@@H]2CCNC[C@H]2COc2ccc3c(c2)OCO3)cc1` [Paroxetine, paroxetine], in series [2], the “Potential metabolites observed in hepatocytes (alone) assays” value was “no potential metabolites observed”.

Take `CN(C)CCCC1(c2ccc(F)cc2)OCc2cc(C#N)ccc21` (centres unmarked) [Citalopram, citalopram]: in series [3], the “Drug remaining with CYP2C19 (strongly metabolized)” value was “less than 80%”. Besides, the “Metabolism Pathway: CYP Pathway” value in series [1] is “CYP 2D6∗, 2C19∗, 3A4, 2C9”; in series [1] (listed as citalopram), “CYP2D6, 2C19, 3A4, and 2C9”.

On to `COCCCC/C(=N\OCCN)c1ccc(C(F)(F)F)cc1` [Fluvoxamine, fluvoxamine], for which the “Metabolism Pathway: CYP Pathway” value in series [1] was “CYP 2D6∗, 2C9, 2C19”; in series [1] (listed as fluvoxamine), “CYP2D6, 2C9, and 2C19”.

For `CN[C@H]1CC[C@@H](c2ccc(Cl)c(Cl)c2)c2ccccc21` [Sertraline, sertraline], the “Drug remaining with CYP2C9 (strongly metabolized)” value in series [4] is “less than 80%”. Besides, the “Drug remaining with CYP2C19 (strongly metabolized)” value in series [3] is recorded as “less than 80%”. The “Metabolism Pathway: CYP Pathway” value was “CYP 2D6∗, 2C9∗, 2C19∗, 1A2, 3A4” in series [1]; “CYP2D6, 2C9, 2C19, 1A2, and 3A4” in series [1] (listed as sertraline).

For the compound `COc1ccc(C(CN(C)C)C2(O)CCCCC2)cc1` (centres unmarked) [Venlafaxine, venlafaxine], the “Metabolism Pathway: CYP Pathway” value in series [1] is “CYP 2D6∗, 2C19∗”; in series [1] (listed as venlafaxine), “CYP2D6 and 2C19”.
